Source: PMC7719179, “Small molecule inhibition of Dynamin-dependent endocytosis targets multiple niche signals and impairs leukemia stem cells” (Nature Communications, 2020)
Values joined by “and” are separate entries in the source; they are usually repeats but may differ in a detail not shown here. Identical values can stand only once.

What was measured:
[1] = system: pSTAT5 and HES1 in ETP12 and ALL8 patient-derived cells; experiment: pSTAT5 and HES1 in ETP12 and ALL8 cells harvested from treated recipients; type: in vivo, human
Protocol: Phosphoflow analysis was performed as previously described. Briefly, 2 × 10^6 cells stained for surface markers were subsequently resuspended into PBS 1× + 4% v/v paraformaldehyde and incubated for 10 min at 4 °C for fixation. Fixed cells were washed twice using PBS 1×, then resuspended in pre-chilled at −20 °C Perm Buffer III (BD Pharmingen) and incubated 30 min at 4 °C for permeabilization. Cells were washed twice using PBS 1× and incubated overnight at 4 °C in PBS 1× + 2% v/v fetal calf serum (FCS) with Cell Signalling purified antibodies (Genesearch Pty Ltd, Arundel QLD, Australia) against pSTAT5 (Tyr694; #9359), phospho-p38 MAPK (Thr180/Tyr182; #4511), phospho-p44/42 (Erk1/2; #9102), phospho-S6 (Ser235/236; #4856) and phospho-Akt (Ser473; #9271) or isotype control. For intracellular HES1 detection, cells stained for surface markers were subsequently fixed and permeabilized using the BD Cytofix/Cytoperm^TM Kit and incubated overnight at 4 °C in PBS 1× + 2% v/v FCS with a purified antibody against HES1 (D6PU; #11988, Cell Signalling) or isotype control. After staining with primary antibodies for phosphoflow or intracellular detection, cells were incubated in permeabilization buffer with donkey Alexa Fluor 488-conjugated anti-rabbit secondary antibody (A-21206, lot #1910751, Molecular Probes, Invitrogen) or goat Alexa Fluor 546-conjugated anti-rabbit secondary antibody (A-11035, lot #1904467, Molecular Probes, Invitrogen) for 1 h on ice, and washed twice in PBS 1×. Fluorescence-activated cell sorting (FACS) analysis was performed using LSRII and LSR Fortessa cytometers, following the gating strategies described in Supplementary Fig. 11. Cell sorting was performed with a FACSAria or BD Influx.
Patient-derived xenograft models were established as previously described[97],[98]. […] For transplantation assays, 10^6 splenocytes harvested from successfully engrafted primary human ETP-ALL or T-ALL xenografts were injected into nonobese diabetic/severe combined immunodeficient (NOD.Cg-Prkdc^scid, also termed NOD/SCID) or NOD/SCID/Il2rg^tm1wjl/SzJ (NSG) mice[99]. Moreover, 1.5 × 10^6 cells splenocytes harvested from successfully engrafted patient-derived AML xenografts were injected into nonobese diabetic/severe immunodeficient (NOD.Cg-Rag1^tm1MomIl2rg^tm1wjl/SzJ, also termed NRG) mice expressing human IL-3, human GM-CSF and human SCF from the SGM3 triple transgene (NRGS)[100]. Engraftment into recipients was monitored by FACS analysis of peripheral blood as previously described. […] The in vivo efficacy of Dynole 34-2 was assessed 24 h after the last injection by FACS analysis and immunohistochemistry as described in Supplementary Methods. […]

[2] = Pharmacokinetic analysis of serum levels after a single intraperitoneal dose; type: in vivo; settings: ip, mouse, single intraperitoneal dose 30 mg/Kg
Protocol: All experiments were pre-approved by the University of Melbourne Animal Ethics Committee (Ethics ID: 0911153.1). […] Five different time points were chosen to measure drug level: 15, 30, 60 120 and 240 min after intraperitoneal injection of the recipients. At each time points, treated mice were killed by lethal injection of 0.01 mL/g of Lethobarb® (325 mg pentobarbitone sodium/mL). Following this, blood was collected via intra-cardiac puncture, blood was then allowed to clot at room temperature for 15 min, then centrifuged at 1500 × g for 6 min to separate out the cells and serum. The serum was collected, weighed, snap frozen in dry ice and stored at −80 °C.
Drug-free mouse serum was used as negative controls. Serum blanks, including calibration standard and quality control samples, were prepared by protein precipitation. Selectivity was evaluated by comparing chromatograms of six blank blood samples from six different sources to make sure there were no significant interfering peaks at retention time of analysis. The maximum serum concentration (Cmax) and the time to reach Cmax (Tmax) were directly obtained from the experimental data. The time needed for 50% reduction in the serum concentration (terminal half-life; T1/2) was calculated from the mean values (n = 5) using GraphPad Prism 8.

CCCCCCCCNC(=O)C(C#N)=Cc1cn(CCCN(C)C)c2ccccc12 [Dynole 34-2, 2-Cyano-N-octyl-3-(1-(3-dimethylaminopropyl)-1H-indol-3-yl)-acrylamide]
HES1 (MFI) in human CD45+ cells ([1]; PDX ALL8): 1836 MFI and 2160 MFI and 2094 MFI
pSTAT5 (MFI) in human CD45+ cells ([1]; PDX ALL8): 2379 MFI and 2645 MFI and 2581 MFI
HES1 (MFI) in human CD45+ cells ([1]; PDX ETP12): 8443 MFI and 7622 MFI and 8597 MFI and 6696 MFI and 10495 MFI and 10443 MFI
pSTAT5 (MFI) in human CD45+ cells ([1]; PDX ETP12): 4191 MFI and 3709 MFI and 3790 MFI
Cmax ([2]; read-out: average maximum concentration (Cmax) in serum): > 4 µM
half-life ([2]; read-out: estimated half-life in serum): 30 min
